# “Also recorded” adds a separate entry of the source. Residues, ends and D or L forms follow the SMILES beside them.
# What was measured:
# [1] = system: DocSTm; test: Dot blot phosphorylation assay (EF-Tu phosphorylation by Doc); type: biochemical, S. Typhimurium; conditions: α-pThr, DocSTm 1 μM, EF-TuSTm 3 μM, ATP 1 mM, inhibitor 10 μM to 5 nM (3-fold dilutions), 16 h at RT
# Protocol: Samples were prepared to a final volume of 10 μL. […] Samples were incubated for 16 h at RT and subsequently spotted on a nitrocellulose membrane. Phosphorylated EF-Tu was detected by immunodecoration using a rabbit monoclonal antiphosphothreonine antibody (Abcam, ab218195) at 1:2000 dilution (1 h at 4 °C), followed by incubation with a goat antirabbit IgG (H+L) HRP conjugate antibody (Advansta) at 1:10 000 dilution (1 h at RT). Chemiluminescence was developed using the HRP Luminata kit (Merck, WBLUR0100) and captured by an ImageQuant LAS4000 Western blot imaging system (Cytiva).
# [2] = biological target: DocSTm; test: Surface plasmon resonance binding to immobilised Doc; set-up: species or system S. Typhimurium; conditions: for koff × 10^-6 / kon × 10^6: 1:1 kinetic fit, mean ± SD of at least 3 replicates; for kon × 10^6: single-cycle kinetics (multicycle for PhdSTm1-73); for Half-life of the complex: t1/2 = ln2 / koff
# Protocol: Experiments were performed in a Biacore S200 (Cytiva) with a Series S sensor chip NTA (Cytiva). The data was analyzed using the Biacore Evaluation Software (Cytiva) and curves were plotted using GraphPad Prism 5 (GraphPad Software, U.S.A.). All experiments were performed at 22 °C with a running buffer containing 10 mM HEPES, 500 mM NaCl, 50 μM EDTA, and 0.005% (v/v) TWEEN 20 at pH 8.0. The surface was conditioned following the standard manufacturer’s guidelines and protein immobilization was performed with a 30–60 s pulse (flow rate of 5 μL/min) of Doc (150 nM) in running buffer. […] Surface regeneration was performed with a 1 min pulse of 0.5 M imidazole followed by a 1 min pulse of 0.35 M of EDTA at pH 8.0.
# Binding to Doc was performed using a multicycle kinetics (MCK) setup for peptides 7, 10, and 14, while the remaining samples were tested using a single-cycle kinetics (SCK) setup. The surface was fully regenerated in between each analyte in both cases. In the MCK experiments, increasing concentrations of each analyte were injected with an 80 s pulse (30 μL/min) and dissociation times varied depending on the time required to fully dissociate the complex. The double-referenced sensorgrams (raw data subtracted from a blank injection and reference surface responses) were analyzed using a kinetic and/or a steady-state 1:1 binding model. In the SCK experiments, typically six concentrations of each analyte were sequentially injected with 80 s pulses (30 μL/min), and dissociation times varied depending on the time required to dissociate at least 5% of the complex. The double-referenced sensorgrams were fitted using a kinetic 1:1 binding model.
# At least three independent replicates were measured for each analyte (ESI section 5). When a steady-state fit was applied, the reported Kd and its uncertainty correspond, respectively, to the average and standard deviations of the Kd obtained in each measurement. When a kinetic fit was applied, the reported rate constants (kon and koff) and their uncertainties correspond, respectively, to the average and standard deviations of the rate constants obtained in each measurement. In this case, reported Kd were calculated using the equation below, and the standard deviation of the rate constants was propagated. [drawing 1]
# [3] = system: DocSTm; test: Differential scanning fluorimetry (thermal stabilisation of Doc); type: binding, S. Typhimurium; conditions: for melting temperature shift ΔTm: DSF, DocSTm 5 μM, analyte 50 μM, Tm with analyte minus Tm of free DocSTm (42.9 ± 0.9 °C), SYPRO Orange, 20 mM K2HPO4, 50 mM (NH4)2SO4, pH 8.0, triplicate; for Average Tm: average of 3 replicates
# Protocol: Experiments were performed in a Mx3005P qPCR System (Agilent) collecting fluorescence data with a temperature ramp of 25 to 95 °C. Samples were prepared in a buffer containing 20 mM K2HPO4 and 50 mM (NH4)2SO4 at pH 8.0. The SYPRO Orange dye (Sigma-Aldrich, 5000× stock in DMSO) was used to monitor protein denaturation and was diluted to a final concentration of 3×. For binding experiments, the final concentration of Doc was 5 μM. Each condition was performed in triplicate (ESI section 4) and the melting curves were plotted using GraphPad Prism 5 (GraphPad Software, U.S.A.). The melting temperatures were obtained by fitting the sigmoidal section of the curves to a Boltzmann sigmoid function.
# [4] = SPR, kinetic fit, KD calculated from mean koff and kon, SD propagated, 22 °C, pH 8.0
# [5] = DocSTm 5 µM + 50 µM binder, replicate 1
# [6] = DocSTm 5 µM + 50 µM binder, replicate 2
# [7] = DocSTm 5 µM + 50 µM binder, replicate 3
Compound,inhibition of EF-TuSTm phosphorylation by DocSTm (in words) [1],"Kd ([2]; SPR kinetic fit, replicate 1)","Kd ([2]; SPR kinetic fit, replicate 2)","Kd ([2]; SPR kinetic fit, replicate 3)","koff × 10^-6 ([2]; SPR, 22 °C, pH 8.0)","kon × 10^6 ([2]; SPR, 22 °C, pH 8.0)","Kd [2, 4]",Half-life of the complex [2],melting temperature shift ΔTm [3],Average Tm ([3]; DocSTm 5 µM + 50 µM binder),"Tm [3, 5]","Tm [3, 6]","Tm [3, 7]",fold decrease in affinity (given as decrease/loss in Kd) compared with peptide 1 ([2]; SPR Kd relative to wild-type peptide 1),binding to DocSTm by SPR (in words) ([2]; SPR),Average Tm ([3]; DocSTm 5 µM + 100 µM peptide),"Tm ([3]; DocSTm 5 µM + 100 µM peptide, replicate 1)","Tm ([3]; DocSTm 5 µM + 100 µM peptide, replicate 2)","Tm ([3]; DocSTm 5 µM + 100 µM peptide, replicate 3)"
CC[C@H](C)[C@H](NC(=O)[C@H](C)NC(=O)[C@H](C)NC(=O)[C@H](Cc1ccccc1)NC(=O)[C@H](CCC(=O)O)NC(=O)[C@H](CC(=O)O)NC(=O)[C@H](CC(=O)O)NC(=O)[C@H](CCSC)NC(=O)[C@H](Cc1c[nH]c2ccccc12)NC(C)=O)C(=O)N[C@@H](CCSC)C(=O)N[C@@H](C)C(=O)N[C@H](C(=O)N[C@@H](Cc1c[nH]cn1)C(=O)NCC(=O)N[C@@H](CC(N)=O)C(=O)N[C@@H](CCC(=O)O)C(=O)N[C@@H](CC(C)C)C(=O)N[C@@H](CCCNC(=N)N)C(=O)N[C@@H](CCC(=O)O)C(=O)N[C@@H](CC(C)C)C(=O)N[C@@H](C)C(=O)O)C(C)C [peptide 20] (Ac-WMDDEFAAIMAVHGNELRELA-OH; N-terminus and C-terminus assumed),inhibition of DocSTm comparable to 1,0.447 nM,0.414 nM,0.424 nM,393 ± 18 ×10^-6 s-1,0.917 ± 0.023 ×10^6 M-1 s-1,0.428 ± 0.023 nM,29.4 ± 1.2 min,25.6 ± 0.9 °C,68.5 ± 0.1 °C,68.5 °C,68.4 °C,68.5 °C,,,,,,
CC[C@H](C)[C@H](NC(=O)[C@H](C)NC(=O)[C@H](C)NC(=O)[C@H](Cc1ccccc1)NC(=O)[C@H](CCC(=O)O)NC(=O)[C@H](Cc1c[nH]c2ccccc12)NC(C)=O)C(=O)N[C@@H](CCSC)C(=O)N[C@@H](C)C(=O)N[C@H](C(=O)N[C@@H](Cc1c[nH]cn1)C(=O)NCC(=O)N[C@@H](CC(N)=O)C(=O)N[C@@H](CCC(=O)O)C(=O)N[C@@H](CC(C)C)C(=O)N[C@@H](CCCNC(=N)N)C(=O)N[C@@H](CCC(=O)O)C(=O)N[C@@H](CC(C)C)C(=O)N[C@@H](C)C(=O)N[C@@H](CC(=O)O)C(=O)N[C@@H](CCCCN)C(=O)O)C(C)C [peptide 21] (Ac-WEFAAIMAVHGNELRELADK-OH; N-terminus and C-terminus assumed),inhibition of DocSTm comparable to 1,0.41 nM,0.412 nM,0.365 nM,496 ± 58 ×10^-6 s-1,1.252 ± 0.080 ×10^6 M-1 s-1,0.396 ± 0.052 nM,23.4 ± 3 min,19.3 ± 0.9 °C,62.2 ± 0.2 °C,62.3 °C,62.0 °C,62.4 °C,,,,,,
CC[C@H](C)[C@H](NC(=O)[C@H](C)NC(=O)[C@H](C)NC(=O)[C@H](Cc1ccccc1)NC(=O)[C@H](CCC(=O)O)NC(=O)[C@H](Cc1c[nH]c2ccccc12)NC(C)=O)C(=O)N[C@@H](CCSC)C(=O)N[C@@H](C)C(=O)N[C@H](C(=O)N[C@@H](Cc1c[nH]cn1)C(=O)NCC(=O)N[C@@H](CC(N)=O)C(=O)N[C@@H](CCC(=O)O)C(=O)N[C@@H](CC(C)C)C(=O)N[C@@H](CCCNC(=N)N)C(=O)N[C@@H](CCC(=O)O)C(=O)N[C@@H](CC(C)C)C(=O)N[C@@H](C)C(=O)O)C(C)C [peptide 22] (Ac-WEFAAIMAVHGNELRELA-OH; N-terminus and C-terminus assumed),severe loss of inhibitory activity; also recorded: poor DocSTm inhibitors,0.342 nM,0.336 nM,0.365 nM,503 ± 16 ×10^-6 s-1,1.449 ± 0.085 ×10^6 M-1 s-1,,22.8 ± 0.6 min,16.3 ± 0.9 °C,59.2 ± 0.3 °C,58.89 °C,59.16 °C,59.42 °C,,,,,,
CC[C@H](C)[C@H](NC(=O)[C@H](C)NC(=O)[C@H](C)NC(=O)[C@H](Cc1ccccc1)NC(=O)[C@H](Cc1c[nH]c2ccccc12)NC(C)=O)C(=O)N[C@@H](CCSC)C(=O)N[C@@H](C)C(=O)N[C@H](C(=O)N[C@@H](Cc1c[nH]cn1)C(=O)NCC(=O)N[C@@H](CC(N)=O)C(=O)N[C@@H](CCC(=O)O)C(=O)N[C@@H](CC(C)C)C(=O)N[C@@H](CCCNC(=N)N)C(=O)N[C@@H](CCC(=O)O)C(=O)N[C@@H](CC(C)C)C(=O)O)C(C)C [peptide 23] (Ac-WFAAIMAVHGNELREL-OH; N-terminus and C-terminus assumed),inactive in all concentrations tested; also recorded: poor DocSTm inhibitors,1.85 nM,1.94 nM,2.18 nM,2794 ± 42 ×10^-6 s-1,1.413 ± 0.136 ×10^6 M-1 s-1,1.98 ± 0.193 nM,4.14 ± 0.06 min,7.9 ± 1.0 °C,50.7 ± 0.3 °C,50.54 °C,50.60 °C,51.08 °C,30 fold,,,,,
Ac-WNELRELADK-OH [compound 25],inactive,,,,,,,,1.3 ± 0.9 °C,44.2 ± 0.1 °C,44.1 °C,44.2 °C,44.4 °C,,Affinity was too weak to be determined by SPR; also recorded: no measurable affinities could be obtained by SPR,43.3 ± 0.1 °C,43.2 °C,43.2 °C,43.4 °C
